Assay [1] relates to C4-2 cells. Briefly: Cell-based killing assay of payloads (CellTiter-Glo), C4-2 cells. Also on record: species or system human. The following applies: 5-day incubation; for IC50: Homo sapiens, C4-2, 120 h, average ± SD where replicates; for C4-2 % Kill: at maximum concentration tested (100 − % viable cells). The protocol:
(§1) To test the ability of the disclosed tubulysin payloads to kill human cell lines, an in vitro cytotoxicity assay was performed. In vitro cytotoxicity of the disclosed payloads, as well as reference compounds, were evaluated using the CellTiter-Glo Assay Kit (Promega, Cat #G7573), in which the quantity of ATP present is used to determine the number of viable cells in culture. For the assay, C4-2, HEK293, or T47D cells were seeded at 4000 cells/well on Nunclon white 96-well plates in complete growth medium (DME high glucose:Ham's F12 at 4:1, 10% FBS, 100 units/ml Penicillin, 100 ug/ml streptomycin, 53 ug/ml glutatmine, 10 ug/ml insulin, 220 ng/ml biotin, 12.5 pg/ml T3, 12.5 ug/ml Adenine, 4 ug/ml transferrin for C42 cells; DME high glucose, 10% FBS, 100 units/ml Penicillin, 100 ug/ml streptomycin, 53 ug/ml glutatmine for HEK293; RPMI, 10% FBS, 100 units/ml Penicillin, 100 ug/ml streptomycin, 53 ug/ml glutatmine, 10 ug/ml insulin, 10 mM HEPEs, 200 nM Sodium Pyruvate for T47D cells) and grown overnight at 37° C. in 5% CO2. For cell viability curves, 1:3 serially diluted payloads were added to the cells at final concentrations ranging from 100 nM to […], including a no treatment control group, and were then incubated for 5 days. After the 5-day incubation, cells were incubated at room temperature with 100 μL of CellTiter-Glo reagents for 10 minutes. Relative luminescence units (RLU) were determined on a Victor plate reader (PerkinElmer). The IC50 values were determined from a four-parameter logistic equation over a 10-point response curve (GraphPad Prism). All IC50 values are expressed in molar (M) concentration. The percent cell killing (% kill) at the maximum concentration tested was estimated from the following formula (100−% viable cells). Averages±standard deviation (SD) are included where replicate experiments were performed.
For orientation: In ATP-based viability assays light output follows the ATP content of the culture.

In assay [2] the test system is HCT15 cells. In words: cells. The assay is classed as cell-based, human. The following applies: HCT15 cells; for HCT-15 + verapamil % Kill / HCT-15 % Kill: maximum % cell killing. The protocol: as §1
In vitro cytotoxicity of the disclosed payloads as well as reference compounds were evaluated similarly as described above except using 1000 HCT15 cells, a colorectal carcinoma cell line, in growth medium (RPMI, 10% FBS, 100 units/ml Penicillin, 100 ug/ml streptomycin, 53 ug/ml glutatmine) with or without 5 ug/mL of Verapamil.

Assay [3] deals with HCT-15 cells. In words: Cytotoxicity in panel of MDR cell lines, HCT-15 (72 h and 144 h). Type of assay: cell-based, human. The following applies: for IC50: Homo sapiens. As to the method:
as §1
(§2) To further test the ability of the disclosed tubulysin payloads, a cytotoxicity assay was performed using a panel of multidrug resistant (MDR) cell lines. In vitro cytotoxicity of the disclosed payloads as well as reference compounds were similarly evaluated as described above except using HCT-15 cells, a colorectal carcinoma cell line; H69AR, a doxorubicin resistant MDR derivative of the small cell lung cancer carcinoma cell line NCI-H69; MES-SA/MX2, a mitoxantrone resistant MDR derivative of the uterine sarcoma cell line MES-SA; and HL60/MX2, a mitoxantrone resistant MDR derivative of the acute promyelocytic leukemia cell line HL60. In these assays, cytotoxicity was evaluated in normal growth media (RPMI, 10% FBS, 100 units/ml Penicillin, 100 ug/ml streptomycin, and 53 ug/ml glutatmine for HCT-15 and HL60/MX2; RPMI, 20% FBS, 100 units/ml Penicillin, 100 ug/ml streptomycin, and 53 ug/ml glutatmine for H69-AR; Waymouths's:McCoy's (1:1), 10% FBS, 100 units/ml Penicillin, 100 ug/ml streptomycin, and 53 ug/ml glutatmine for MES-SA/MX2) with 1000 cells per well following 72 h and 144 h incubation with payloads.

Assay [4] has as its system H69AR cells. Briefly: Cytotoxicity in panel of MDR cell lines, H69AR (72 h and 144 h). Type of assay: cell-based, human. The following applies: for IC50: Homo sapiens. As to the method: as §1, §2
The mark [5] stands for this setting: with 5 ug/mL Verapamil, read-out: HCT-15 + verapamil IC50.
Setting [6] is: Homo sapiens, HCT-15, without Verapamil, read-out: HCT-15 IC50.
Setting [7] is: with 5 ug/mL Verapamil, read-out: HCT-15 + verapamil IC50 (value in brackets).
[8] abbreviates: Homo sapiens, HCT-15, without Verapamil, read-out: HCT-15 IC50 (value in brackets).

Where two headings read alike, the source gives them in different places.

The IC50 is the concentration that gives 50% inhibition.

For `CC[C@H](C)[C@H](NC(=O)[C@H]1CCCCN1C)C(=O)N(CCCCc1cn(CCCC(=O)O)nn1)[C@H](C[C@@H](OC(C)=O)c1nc(C(=O)N[C@@H](Cc2ccc(N)cc2)CC(C)(C)C(=O)O)cs1)C(C)C` [IVn, (S)-4-(2-((1R,3R)-1-Acetoxy-3-((2S,3S)—N-(4-(1-(3-carboxypropyl)-1H-1,2,3-triazol-4-yl)butyl)-3-methyl-2-((R)-1-methylpiperidine-2-carboxamido)pentanamido)-4-methylpentyl)thiazole-4-carboxamido)-5-(4-aminophenyl)-2,2-dimethylpentanoic acid], the IC50 was > 100 nM in assay [1], > 30 nM in assay [2] (setting [5]) and > 30 nM in assay [2] (setting [6]). Moreover, the “C4-2 % Kill” value in assay [1] came out at 30.2%. Moreover, the “HCT-15 + verapamil % Kill” value in assay [2] (with 5 ug/mL Verapamil) was found to be 72.4%. Also, in assay [2] (without Verapamil), the “HCT-15 % Kill” value was 30.9%.
Consider `CCCCCCN(C(=O)[C@@H](NC(=O)[C@H]1CCCCN1C)[C@@H](C)CC)[C@H](C[C@@H](OC(C)=O)c1nc(C(=O)N[C@@H](Cc2ccc(F)cc2)C[C@H](C)C(=O)O)cs1)C(C)C` [IVa, (2S,4R)-4-(2-((1R,3R)-1-Acetoxy-3-((2S,3S)—N-hexyl-3-methyl-2-((R)-1-methylpiperidine-2-carboxamido)pentanamido)-4-methylpentyl)thiazole-4-carboxamido)-5-(4-fluorophenyl)-2-methylpentanoic acid], for which the IC50 in assay [1] amounted to 0.0653 nM; in assay [3] (72 h incubation, read-out: HCT-15 IC50 72 h), 0.166 nM; in assay [3] (144 h incubation, read-out: HCT-15 IC50 144 h) it was 0.318 nM; in assay [4] (72 h incubation, read-out: H69AR IC50 72 h), 0.749 nM; in assay [4] (144 h incubation, read-out: H69AR IC50 144 h) it was 1.38 nM. Moreover, the “C4-2 % Kill” value in assay [1] came out at 95.2%. Moreover, the “HCT-15 % Kill 72 h” value in assay [3] (72 h incubation) is given as 97.8%. Besides, in assay [3] (144 h incubation), the “HCT-15 % Kill 144 h” value came out at 99.6%. In assay [4] (72 h incubation), the “H69AR % Kill 72 h” value was determined as 96.1%. Moreover, the “H69AR % Kill 144 h” value in assay [4] (144 h incubation) is 99.3%.
Consider `CCCCCCN(C(=O)[C@@H](NC(=O)[C@H]1CCCCN1C)[C@@H](C)CC)[C@H](C[C@@H](OC(C)=O)c1nc(C(=O)N[C@@H](Cc2ccc(N)cc2)CC(C)(C)C(=O)NN)cs1)C(C)C` [IVy, (1R,3R)-1-(4-((S)-1-(4-Aminophenyl)-5-hydrazinyl-4,4-dimethyl-5-oxopentan-2-ylcarbamoyl)thiazol-2-yl)-3-((2S,3S)—N-hexyl-3-methyl-2-((R)-1-methylpiperidine-2-carboxamido)pentanamido)-4-methylpentyl acetate], for which, in assay [1], 1.82 nM corresponded to half-maximal inhibition (IC50) and the “C4-2 % Kill” value is on record as 94.4%.
As for `CCCCCCON(C(=O)[C@@H](NC(=O)[C@H]1CCCCN1C)[C@@H](C)CC)[C@H](C[C@@H](OC(=O)NCCC)c1nc(C(=O)N[C@@H](Cc2ccc(O)cc2)C[C@H](C)C(=O)O)cs1)C(C)C` [VIc, (2S,4R)-5-(4-Hydroxyphenyl)-4-(2-((7R,9R)-9-isopropyl-10-((2S,3S)-3-methyl-2-((R)-1-methylpiperidine-2-carboxamido)pentanoyl)-5-oxo-6,11-dioxa-4,10-diazaheptadecan-7-yl)thiazole-4-carboxamido)-2-methylpentanoic acid], the figures for the IC50 in assay [1], in assay [2] (setting [5]) and in assay [2] (setting [6]) were 1.33 nM, 0.286 nM and 13.2 nM, respectively. In addition, the “C4-2 % Kill” value in assay [1] is on record as 95.5 ± 1.8%. The “HCT-15 + verapamil % Kill” value in assay [2] (with 5 ug/mL Verapamil) worked out at 98.8%. Moreover, the “HCT-15 % Kill” value in assay [2] (without Verapamil) is on record as 94%.
Regarding `C#CCCCON(C(=O)[C@@H](NC(=O)[C@H]1CCCCN1C)[C@@H](C)CC)[C@H](C[C@@H](OC(C)=O)c1nc(C(=O)N[C@@H](Cc2ccc(O)cc2)CC(C)(C)C(=O)O)cs1)C(C)C` [IX, (4S)-4-({2-[(1R,3R)-1-(Acetyloxy)-4-methyl-3-[(2S,3S)-3-methyl-2-{[(2R)-1-methylpiperidin-2-yl]formamido}-N-(pent-4-yn-1-yloxy)pentanamido]pentyl]-1,3-thiazol-4-yl}formamido)-5-(4-hydroxyphenyl)-2,2-dimethylpentanoic acid], the values for the IC50 in assay [1], in assay [2] (setting [7]) and in assay [2] (setting [8]) were 0.054 nM, 0.162 nM and 0.171 nM, respectively.
For the molecule `CCCCCON(C(=O)[C@@H](NC(=O)[C@H]1CCCCN1C)[C@@H](C)CC)[C@H](C[C@@H](OC(C)=O)c1nc(C(=O)N[C@@H](Cc2ccc(O)cc2)CC(C)(C)C(=O)O)cs1)C(C)C` [X, (4S)-4-({2-[(1R,3R)-1-(Acetyloxy)-4-methyl-3-[(2S,3S)-3-methyl-2-{[(2R)-1-methylpiperidin-2-yl]formamido}-N-(pentyloxy)pentanamido]pentyl]-1,3-thiazol-4-yl}formamido)-5-(4-hydroxyphenyl)-2,2-dimethylpentanoic acid], the results for the IC50 in assay [1], in assay [2] (setting [7]) and in assay [2] (setting [8]) were 0.06 nM, 0.116 nM and 0.097 nM, respectively.
For `CCCCCCN(C(=O)[C@@H](NC(=O)[C@H]1CCCCN1C)[C@@H](C)CC)[C@H](C[C@@H](OC(C)=O)c1nc(C(=O)N[C@H](Cc2ccc(N)c(F)c2)CC(C)(C)C(=O)O)cs1)C(C)C` [IVvA, 4-({2-[(1R,3R)-1-(Acetyloxy)-3-[(2S,3S)—N-hexyl-3-methyl-2-{[(2R)-1-methylpiperidin-2-yl]formamido}pentanamido]-4-methylpentyl]-1,3-thiazol-4-yl}formamido)-5-(4-amino-3-fluorophenyl)-2,2-dimethylpentanoic acid], the IC50 in assay [1] was found to be 10.9 nM; in assay [2] (setting [5]), 1.97 nM; in assay [2] (setting [6]), 5.27 nM. Also, the “C4-2 % Kill” value in assay [1] is given as 96.7%. Also, the “HCT-15 + verapamil % Kill” value in assay [2] (with 5 ug/mL Verapamil) was 97.1%. The “HCT-15 % Kill” value in assay [2] (without Verapamil) amounted to 99.2%.
`CCCCCCN(C(=O)[C@@H](NC(=O)[C@H]1CCCCN1C)[C@@H](C)CC)[C@H](C[C@@H](OC(C)=O)c1nc(C(=O)N[C@@H](Cc2ccc(O)c(N)c2)CC(C)(C)C(=O)O)cs1)C(C)C` [IVw, (S)-4-(2-((1R,3R)-1-Acetoxy-3-((2S,3S)—N-hexyl-3-methyl-2-((R)-1-methylpiperidine-2-carboxamido)pentanamido)-4-methylpentyl)thiazole-4-carboxamido)-5-(3-amino-4-hydroxyphenyl)-2,2-dimethylpentanoic acid]: the IC50 was > 100 nM in assay [1], 4.49 nM in assay [2] (setting [5]) and 9.73 nM in assay [2] (setting [6]). Further, the “C4-2 % Kill” value in assay [1] was determined as 27.9%. In assay [2] (with 5 ug/mL Verapamil), the “HCT-15 + verapamil % Kill” value came to 98.3%. Besides, the “HCT-15 % Kill” value in assay [2] (without Verapamil) was 95.9%.
